Results reported in patent publication US9320803B2 (priority 2011, dated 2016).

Assays:
[1] = pH 5.0; cited from earlier work
[2] = Binding studies to native bone matrix; parameters: species or system bovine; settings: after 4 h, pH 7.4, 37° C., 300 μM, about 50 mg bone piece
Procedure: For this binding assay, bovine bone fragments were cut into small pieces (6 mm×4 mm×1 mm). The bone pieces were left untreated, washed with water (bidest.) and with absolute ethanol and dried over night at room temperature. Then, in a falcon tube the prodrugs were dissolved in phosphate-buffer (4 mM Na2HPO4 containing 150 mM NaCl, pH 7.4) to obtain a concentration of 300 μM. Approximately 50 mg of an untreated bone piece was added to the clear red solution, and the samples were incubated under stirring at 37° C. After 4 h, the samples were centrifuged (4000 rpm, duration: 60 sec, Heraeus® Megafuge® 1.0), and the absorbance of the supernatant was measured with a spectrophotometer at a wavelength of 495 nm (ε495(doxorubicin)=10650 M^−1 cm^−1). Percent bone binding was calculated

cathepsin B = biological target: T1, cathepsin B (Homo sapiens, UniProt P07858); assay: Cleavage studies with cathepsin B (HPLC); format: biochemical
T1 construct: purchased Calbiochem, Germany
Procedure: For cleavage of 16 with cathepsin B, 150 μL of a 50 mM sodium acetate buffer containing 100 mM NaCl, 4 mM EDTA Na2 and 0.15 mg L-cysteine (pH 5.0). 6.7 μL cathepsin B solution (23.8 U/mg, from Calbiochem, Germany) were added to a 100 μL solution of 16 (300 μM in 50 mM sodium phosphate buffer, pH 7.0) and the solution incubated for 1 h at 37° C.
HPLC was carried out with a Symmetry300, C18, 5 μm (4.6×250 mm) HPLC using 15% acetonitrile and 85% 20 mM sodium phosphate buffer (pH 7.0) as mobile phase A and 30% acetonitrile and 70% 20 mM sodium phosphate buffer (pH 7.0) as mobile phase B. The gradient was 0 to 1.5 min 100% phase A, 1.5 to 20 min to 100% B, 20 min to 45 min 100% B, 45 to 55 min to 100% A. Flow 1 mL/min; injection volume: 50 μL.
A 176 μL stock solution of compound 23 [1.5 mM] was diluted with 9 μL cathepsin B (0.4 mg/mL, 23.8 U/mg, from Calbiochem, Germany) and 264 μL of buffer (50 mM sodium acetate, 100 mM NaCl, 4 mM EDTA, pH 5.0) containing L-cysteine (8 mM). The mixture was incubated at 37° C. and aliquots (65 μL) were taken after 0 min, 20 min, 40 min, 60 min and 120 min and analyzed by HPLC. […]

[3] = Binding studies to hydroxyapatite; settings: pH 7.4, 37° C., 300 μM, hydroxyapatite 30 eq
Procedure: General procedure: In a falcon tube, the test compound was diluted in phosphate-buffer (4 mM Na2HPO4 containing 150 mM NaCl, pH 7.4) to obtain a solution with a concentration of 300 μM. Hydroxyapatite (30 eq) was added and the suspension was stirred well and incubated at 37° C. Another solution of the samples without hydroxyapatite was used as control. […] (4000 rpm, duration: 60 sec, Heraeus® Megafuge® 1.0) and the absorbance of the supernatant was measured with a spectrophotometer at a wavelength of 495 nm (ε495(doxorubicin)=10 650 M^−1 cm^−1). Each result represents the arithmetic average of three measurements and percent HA binding was calculated.

[4] = Acid cleavage study of compound 14 (HPLC); format: physicochemical; settings: pH 3.8 (phosphoric acid added), after 5 min at room temperature, 300 μM, reverse phase HPLC
Procedure: 1 mL of a 300 μM solution of 14 in 50 mM sodium phosphate buffer was prepared and a 50 μL sample was analyzed by reverse phase HPLC (see FIG. 1A). To 400 μL of this solution was added 4 μL concentrated phosphoric acid resulting in a pH value of 3.8.

SMILES: COc1cccc2c1C(=O)c1c(O)c3c(c(O)c1C2=O)C[C@@](O)(/C(CO)=N/NC(=O)CCCCCN1C(=O)C=CC1=O)C[C@@H]3O[C@H]1C[C@H](N)[C@H](O)[C@H](C)O1 [DOXO-EMCH, 6-maleimidocaproylhydazone derivative of doxorubicin]
- acid-sensitive cleavage releasing doxorubicin [1]: cleavable at pH 5.0

SMILES: COc1cccc2c1C(=O)c1c(O)c3c(c(O)c1C2=O)C[C@@](O)(C(=O)CO)C[C@@H]3O[C@H]1C[C@H](N)[C@H](O)[C@H](C)O1 [doxorubicin]
- percent bone binding [2]: no binding

SMILES: COc1cccc2c1C(=O)c1c(O)c3c(c(O)c1C2=O)C[C@@](O)(C(=O)CO)CC3O[C@H]1C[C@H](NC(=O)OCc2ccc(NC(=O)[C@H](C)NC(=O)[C@@H](NC(=O)CCCCCN3C(=O)CC(SCCCSCC(P(=O)(O)O)P(=O)(O)O)C3=O)C(C)C)cc2)[C@H](O)[C@H](C)O1 (stereo partly shown) [compound 23]
- cleavage to doxorubicin by cathepsin B (cathepsin B; incubation 2 h at 37° C., pH 5.0, reversed phase HPLC): complete cleavage to doxorubicin
- percent HA binding ([3]; after 5 h): over 90%
- percent HA binding ([3]; after 24 h): ~100%
- percent HA binding ([3]; after one hour): approximately 50%

SMILES: COc1cccc2c1C(=O)c1c(O)c3c(c(O)c1C2=O)C[C@@](O)(/C(CO)=N/NC(=O)CCCCCN1C(=O)CC(SCCCSCC(P(=O)(O)O)P(=O)(O)O)C1=O)C[C@@H]3OC1C[C@@H](N)[C@@H](O)[C@@H](C)O1 (stereo partly shown) [compound 14]
- cleavage to doxorubicin [4]: rapid cleavage to doxorubicin
- percent HA binding ([3]; after 5 h): ~80%
- percent HA binding ([3]; after one hour): approximately 50%

SMILES: COc1cccc2c1C(=O)c1c(O)c3c(c(O)c1C2=O)C[C@@](O)(C(=O)CO)CC3O[C@H]1C[C@H](NC(=O)OCc2ccc(NC(=O)C(CCCCN)NC(=O)C(Cc3ccccc3)NC(=O)CCCCCN3C(=O)CC(SCCCSCC(P(=O)(O)O)P(=O)(O)O)C3=O)cc2)[C@H](O)[C@H](C)O1 (stereo partly shown) [compound 16]
- cleavage to doxorubicin by cathepsin B (cathepsin B; incubation 1 h at 37° C., buffer pH 5.0, reverse phase HPLC): complete cleavage to doxorubicin
